In US7884115B2, “Methods and compositions for the treatment of pain and other neurological conditions” (Allergan, Inc., priority 2004, dated 2011):

Columns and labels:
[1] = tested on: primary rat brain cortical neurons treated with kainate; test: Kainate-induced excitotoxicity in primary cortical neurons (LDH release); format: cell-based; conditions: cortical cell cultures; FIGS. 9A, 9B and 9C
Procedure: (§1) Primary rat brain cortical neurons were cultured as follows. In brief, rat cerebral cortices were removed from brains of the 16 day-old-fetal rats. The neocortices were gently triturated and plated on 24 well plates (300,000 viable cells/cm2) in plating Modified Eagle's Medium (MEM) supplemented with 10% horse serum, 10% fetal calf serum and 2 mM L-glutamine. Cultures were maintained at 37 C in a humidified 5% CO2 atmosphere.
(§2) After 4 days' growth (DIV 4), half of the medium was replaced by a medium identical to the plating medium but lacking calf serum. At DIV4, 10 μM 5-fluoro-2-deoxyuridine was included to each well to halt overgrowth of glia. Mixed cultures of neurons and glia were then fed at DIV7 and DIV11 with MEM plus 5% horse serum previously conditioned by growth with cortical astrocytes for 24 h.
Excitotoxicity was induced in these cells by addition of 50 μM kainate or 20 μM N-methyl-D-aspartate plus 10 μM D-serine to each well.
(§3) Under the experimental conditions used, i.e. after 6 hours addition of excitotoxic agent, 40% toxicity is generally observed and measured by determination of the amount of lactate dehydrogenase (LDH) released into the medium following membrane degradation. Such assay methods are well-known; a kit for conducting a homogeneous form of the LDH assay format is sold by Promega under the name CytoTox ONE® Homogenous Membrane Integrity Assay. Overall cell injury was assessed microscopically under phase-contrast optics or by measuring amount of LDH released into the bathing medium 24 hr after neurotoxic insults (see, e.g., Koh and Choi, J. NEUROSCI. METHODS 20: 83-90, 1987), hereby incorporated by reference herein.
[…] The final results are normalized optical density (OD) values (treated cells/untreated control cells), where a value of 1 represents 100% neuronal survival and a value of 0.6 represents 60% survival.

[2] = tested on: allodynia induced by N-methyl-D-aspartate (NMDA); test: Mouse NMDA model of allodynia; format: in vivo; conditions: 3 mg/kg, 15 min before 200 ng NMDA IT, FIG. 2
Procedure: In variants of this model, allodynia can be induced using 100 ng N-methyl-D-aspartate (NMDA) in DMSO intrathecally, or IP phenylephrine (PE) 100 ng/kg formulated in dH2O. In either model, the compounds are formulated in d-H2O and given in a volume of 1 ml/kg body weight for intraperitoneal (IP) dosing. Six mice per group are rendered allodynic by injection of one of the following agents: 300 ng/kg sulprostone in DMSO IP, 100 ng/kg phenylephrine (PE) in dH2O IP, or 100 ng NMDA in DMSO intrathecally (IT). Fifteen minutes before administration of the allodynia-inducing agents, the experimental mice are given 1 mg/kg NB-DNJ. Thirty (30) minutes following administration of NB-DNJ, the allodynic response is monitored as described by brushing the flank of each mouse with a paint brush. Six mice per group are given one of the following: given 100 μg/kg NB-DNJ, 300 μg/kg NB-DNJ, 1 mg/kg NB-DNJ, or 3 mg/kg 1-deoxynojirimycin. After 15 minutes the mice are rendered allodynic by injection of 200 ng NMDA in DMSO IT. Starting thirty (30) minutes following administration of NB-DNJ, the allodynic response of each mouse is monitored by brushing the flank of the mouse with a paint brush. Five to six mice per group are rendered allodynic by injection of one of the following: 300 ng/kg sulprostone IP, 100 ng/kg phenylephrine (PE) IP, or 100 ng NMDA intrathecally (IT). Fifteen minutes prior to the induction of allodynia, the mice are given D-glucaro-delta-lactam IP at […], or 1 mg/kg. PE or NMDA-treated mice are given 1 mg/kg D-glucaro-delta-lactam IP.

[3] = tested on: primary rat brain cortical neurons treated with NMDA plus D-serine; test: NMDA/serine-induced excitotoxicity in primary cortical neurons (LDH release); format: cell-based; conditions: NMDA/serine-treated cells, 3 h or 16 h preincubation; FIGS. 10A and 10B
Procedure: as §1
as §2, with “h. […]” for “h.”
as §3, with “Such assay methods are well-known; a kit for conducting a homogeneous form of the LDH assay format is sold by Promega under the name CytoTox ONE® Homogenous Membrane Integrity Assay.” left out, “herein. […]” for “herein.”

[4] = tested on: allodynia induced by sulprostone; test: Mouse sulprostone model of allodynia; format: in vivo; conditions: up to 1 mg/kg, 15 min before sulprostone 300 ng/kg IP, FIG. 3
Procedure: In this alternative model of chronic pain, allodynia can be induced in mice through intraperitoneal treatment of the animals with 300 ng/kg sulprostone (prostaglandin E2 receptor agonist) in 50% DMSO and in a volume of 5 μl. In this model, the pain response to stroking the flank with a paint brush is scored 8 times over a 35 minute period starting 15 minutes following spinal administration of sulprostone. Minami et al., 57 Pain 217-223 (1994), hereby incorporated by reference herein. Sulprostone treatment alone elicits a score of 12-13 on a 16-point scale.
In either model, the compounds are formulated in d-H2O and given in a volume of 1 ml/kg body weight for intraperitoneal (IP) dosing.
Six mice per group are rendered allodynic by injection of one of the following agents: 300 ng/kg sulprostone in DMSO IP, 100 ng/kg phenylephrine (PE) in dH2O IP, or 100 ng NMDA in DMSO intrathecally (IT). Fifteen minutes before administration of the allodynia-inducing agents, the experimental mice are given 1 mg/kg NB-DNJ. Thirty (30) minutes following administration of NB-DNJ, the allodynic response is monitored as described by brushing the flank of each mouse with a paint brush.
Five to six mice per group are rendered allodynic by injection of 300 ng/kg sulprostone IP. Fifteen minutes before inducement of an allodynic response, experimental mice are given one of the following: 1 mg/kg, 300 μg/kg, and 100 μg/kg NB-DNJ; 1 mg/kg N-butyldeoxymannojirimycin; 1 mg/kg N-5-carboxy-1-deoxynojirimycin; 1 mg/kg N-dodecyldeoxynojirimycin; 1 mg/kg N-ethyl-1-deoxynojirimycin; 1 mg/kg, 300 μg/kg, and 30 μg/kg D-glucaro-delta-lactam; 1 mg/kg 4-O-a-D-glucopyranosylmoranoline; 1 mg/kg nojirimycin bisulfite; 1 mg/kg nojirimycin-1-sulfonic acid; 1 mg/kg N-(n-nonyl)deoxynojirimycin; 1 mg/kg N(7-oxadecyl)deoxynojirimycin; and 1 mg/kg N-(7-oxa-9,9,9-trifluorononyl)deoxynojirimycin. The DMSO vehicle and sulprostone alone are used as controls.
Starting thirty (30) minutes following administration of NB-DNJ, the allodynic response of each mouse was monitored by brushing the flank of the mouse with a paint brush.
Five to six mice per group are rendered allodynic by injection of one of the following: 300 ng/kg sulprostone IP, 100 ng/kg phenylephrine (PE) IP, or 100 ng NMDA intrathecally (IT). Fifteen minutes prior to the induction of allodynia, the mice are given D-glucaro-delta-lactam IP at […], or 1 mg/kg. PE or NMDA-treated mice are given 1 mg/kg D-glucaro-delta-lactam IP.

chronic pain = test: Mouse and rat models of chronic pain (summary statement); format: in vivo

Q: What does the source list for `OC[C@H]1NC[C@H](O)[C@@H](O)[C@@H]1O` [DNJ, 1-deoxynojirimycin]?
A: protection against kainate induced toxicity [1]: about 50%; analgesic activity [2]: not analgesic; neuroprotective effect [3]: no neuroprotective effect

Q: For `CCN1C[C@H](O)[C@@H](O)[C@H](O)[C@H]1CO` [N-ethyldeoxynojirimycin, N-ethyl-1-deoxynojirimycin], which “attenuation of the allodynic response (analgesic activity)” value [4] is on record?
A: attenuate the allodynic response

Q: Which “activity in models of chronic pain” value (chronic pain) does the source give for `CCCCN1C[C@H](O)[C@@H](O)[C@@H](O)[C@H]1CO` [NB-DGJ, N-butyldeoxygalactonojirimycin] here?
A: not to be active
